This passage reports IC50 results from ChEMBL document CHEMBL1157405, “ent-Kaurane diterpenoids from Isodon japonicus” (J Nat Prod, 2008).

SMILES strings stand for the structures.

For this test, the system named is RAW264.7. Put plainly: Inhibition of LPS-induced nitric oxide production in mouse RAW264.7 cells assessed as nitrite formation. Format: functional, cell-based.
Regarding `C=C1C(=O)[C@]23C[C@H]1C[C@@H](OC(C)=O)[C@H]2[C@@]12CO[C@@]3(O)[C@@H](O)[C@@H]1[C@](C)(COC(C)=O)CC[C@@H]2O`, the IC50 (in general, the point on the concentration scale where inhibition reaches its midpoint) amounted to 10.2 µM. Regarding `C=C1C(=O)[C@]23C[C@H]1CC[C@H]2[C@]1(COC3=O)[C@@H](OC(C)=O)CC[C@@](C)(CO)[C@H]1COC(C)=O`, the IC50 came out at 8.7 µM. For `C=C1C(=O)[C@]23C[C@H]1CC[C@H]2[C@]1(COC3=O)[C@@H](OC(C)=O)CC[C@@](C)(COC(C)=O)[C@H]1CO`, the IC50 was determined as 8.2 µM. Regarding `C=C1C(=O)[C@]23C[C@H]1CC[C@H]2[C@]1(COC3=O)[C@@H](OC(C)=O)CC[C@@](C)(COC(C)=O)[C@H]1C=O`, the IC50 worked out at 20.3 µM. With `C=C1C(=O)[C@]23C[C@H]1CC[C@H]2[C@@]12CO[C@]3(O)[C@@H](O)[C@@H]1[C@](C)(COC(C)=O)CC[C@@H]2OC(C)=O` [EFFUSANIN D], the IC50 amounted to 3.3 µM.

As for `C=C1C(=O)[C@]23[C@H](O)[C@H]1CC[C@H]2[C@@]12CO[C@@]3(O)[C@@H](O)[C@@H]1[C@](C)(COC(C)=O)CC[C@@H]2OC(C)=O` [ISODOJAPONIN A], the IC50 came to 6.3 µM. For the molecule `C=C1C(=O)[C@@]23[C@H](O)C[C@@H]4C(C)(C)[C@@H](OC(C)=O)CC[C@@]4(C)[C@@H]2CC(=O)[C@@H]1[C@H]3O` [PSEURATA C], the IC50 is 5.4 µM. As to `C=C1C(=O)[C@]23[C@@H](O)[C@H]1CC[C@H]2[C@@]12COC3(O)C[C@@H]1C(C)(C)CC[C@@H]2O`, the IC50 turned out to be 8.5 µM.

In the case of `C=C1C(=O)[C@]23C[C@H]1C[C@@H](O)[C@H]2[C@]12CCC[C@@](C)(COC(C)=O)[C@H]1[C@H](O)[C@]3(O)OC2` [LONGIKAURIN D], the IC50 came out at 2 µM. On to `C=C1C(=O)[C@]23[C@H](O)[C@H]1CC[C@H]2[C@]12CCC[C@@](C)(COC(C)=O)[C@H]1[C@H](O)[C@]3(O)OC2` [LONGIKAURIN B], for which the IC50 is 0.9 µM. As for `C=C1C(=O)[C@]23C[C@H]1C[C@@H](O)[C@H]2[C@]1(COC3=O)[C@@H](OC(C)=O)CC[C@@](C)(COC(C)=O)[C@H]1C=O` [LOXOTHYRIN A], the IC50 is 24.2 µM. The same measure for `C=C1C(=O)[C@]23C[C@H]1CC[C@H]2[C@]12CCC[C@@](C)(COC(C)=O)[C@H]1[C@H](O)[C@]3(O)OC2` [LONGIKAURIN C]: 1 µM; for `C=C1C(=O)[C@]23[C@H](O)[C@H]1CC[C@H]2[C@@]12CO[C@@]3(O)[C@@H](O)[C@@H]1C(C)(C)CC[C@@H]2OC(C)=O` [LASIOKAURIN]: 1.6 µM; for `C=C1C(=O)[C@@]23[C@H](O)C[C@@H]4C(C)(C)CC[C@H](O)[C@@]4(C)[C@@H]2C[C@H](OC(C)=O)[C@@H]1[C@H]3O` [EXCISANIN B]: 3.3 µM. With `C=C1C(=O)[C@]23C[C@H]1CC[C@H]2[C@@]12CO[C@@]3(O)[C@@H](O)[C@@H]1[C@](C)(COC(C)=O)CC[C@@H]2O`, the IC50 came out at 5.9 µM.
